≈ marks a conversion by molar mass, not a printed value.
Assay: Toxicity against Artemia salina
Assay type: organism-based
Conditions: in vivo, read-out: LD50 (the source's name)

Structure (SMILES) | LC50
C/C(=C/CCC(C)CC(=O)C(O)C(C)Cl)CCCc1coc(Cc2ccoc2)c1 (centres undefined) | 8.6 µg/mL (≈ 20.4 µM)
C/C(=C\CCc1coc(Cc2ccoc2)c1)CCCC(C)CC(=O)C(O)C(C)Cl (centres undefined) | 8.2 µg/mL (≈ 19.5 µM)
CC1=C(O)/C(=C/[C@H](C)CC/C=C(/C)CCCc2coc(Cc3ccoc3)c2)OC1=O [IRCININ 2] | 2.7 µg/mL (≈ 6.58 µM)
CC1=C(O)/C(=C/[C@H](C)CCC/C(C)=C/CCc2coc(Cc3ccoc3)c2)OC1=O [IRCININ 1] | 2.4 µg/mL (≈ 5.85 µM)

From ChEMBL document CHEMBL1158926, “Norsesterterpenes from the North Adriatic Sponge Ircinia oros” (J Nat Prod, 1990)
